The record followed here is patent publication US9808003B2, “Herbicidally active 2-(substituted-phenyl)-cyclopentane-1,3-dione compounds and derivatives thereof” (Syngenta Limited, priority 2013, dated 2017).

Common to all, as to assay type: in vivo
Assay [1] deals with Alopecurus myosuroides (ALOMY). Description: Test 1A glasshouse assay, post-emergence herbicidal activity. The conditions noted are these: Alopecurus myosuroides, 312 h, application rate 250 g/ha, 13 days after application, visual (100%=total damage; 0%=no damage), read-out: Post-emergence Herbicidal Activity (% Phytotoxicity) ALOMY. In short, it runs like this:
(§1)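 Test species were sown in pots of standard soil and cultivated for 8 days at 24/16 °C (day/night) with 14 h light and 65% humidity. Plants were next sprayed with the formulated active ingredient (acetone/water 50:50, 0.5% Tween 20). Damage was rated visually as % phytotoxicity 13 days later.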

Assay [2] relates to Avena fatua (AVEFA). Described as above. The conditions noted are these: Avena fatua, 312 h, application rate 250 g/ha, 13 days after application, visual (100%=total damage; 0%=no damage), read-out: Post-emergence Herbicidal Activity (% Phytotoxicity) AVEFA. In short, it runs like this:
as §1

In assay [3] the test system is Echinochloa crus-galli (ECHCG). The description is as above. The following applies: Echinochloa crus-galli, 312 h, application rate 250 g/ha, 13 days after application, visual (100%=total damage; 0%=no damage), read-out: Post-emergence Herbicidal Activity (% Phytotoxicity) ECHCG. In outline: as §1
The test system of assay [4] is Lolium perenne (LOLPE). Described as above. The conditions noted are these: Lolium perenne, 312 h, application rate 250 g/ha, 13 days after application, visual (100%=total damage; 0%=no damage), read-out: Post-emergence Herbicidal Activity (% Phytotoxicity) LOLPE. In short, it runs like this:
as §1

For assay [5], the system named is Alopecurus myosuroides (ALOMY). The assay can be described thus: Test 1A glasshouse assay, pre-emergence herbicidal activity. The conditions noted are these: 312 h, 13 days after application, read-out: Pre-emergence herbicidal activity (% phytotoxicity) ALOMY. The method, then: (§2) Seeds of a variety of test species were sown in standard soil in pots. After cultivation for one day (pre-emergence) or after 8 days cultivation (post-emergence) under controlled conditions in a glasshouse (at 24/16° C., day/night; 14 hours light; 65% humidity), the plants were sprayed with an aqueous spray solution derived from the formulation of the technical active ingredient in acetone/water (50:50) solution containing 0.5% Tween 20 (polyoxyethelyene sorbitan monolaurate, CAS RN 9005-64-5). The test plants were then grown under controlled conditions in a glasshouse (at 24/16° C., day/night; 14 hours light; 65% humidity) and watered twice daily. 13 days after application of the test herbicide, for pre- and post-emergence, the test was evaluated visually for percentage phytotoxicity to the plant (where 100%=total damage to plant; 0%=no damage to plant).
(§3) Test plants: Lolium perenne (LOLPE), Alopecurus myosuroides (ALOMY), Echinochloa crus-galli (ECHCG), and Avena fatua (AVEFA); these are all grassy monocotyledonous weeds.

Assay [6] concerns Avena fatua (AVEFA). Described as above. The following applies: 312 h, 13 days after application, read-out: Pre-emergence herbicidal activity (% phytotoxicity) AVEFA. The method, then: as §2, §3
For assay [7], the system named is Echinochloa crus-galli (ECHCG). The description is as above. The following applies: 312 h, 13 days after application, read-out: Pre-emergence herbicidal activity (% phytotoxicity) ECHCG. The method, then: as §2, §3
Assay [8] relates to Lolium perenne (LOLPE). The description is as above. The conditions noted are these: 312 h, 13 days after application, read-out: Pre-emergence herbicidal activity (% phytotoxicity) LOLPE. How it is done:
as §2, §3

`Cc1cc(C)c(C2C(=O)CC(CCNC(=O)c3ccccc3)C2=O)c(C)c1` (stereo not drawn) [Compound A1, N-[2-[2,4-dioxo-3-(2,4,6-trimethylphenyl)cyclopentyl]ethyl]-benzamide]: the pest or weed control at 250 g/ha in assay [1] came out at 80%; in assay [2] it was 90%; in assay [3] it was 100%; in assay [4] it was 100%. The inhibition at 1000 g/ha in assay [5] (1000 g/ha) stood at 90%; in assay [6] (1000 g/ha), 70%; in assay [7] (1000 g/ha), 100%; in assay [8] (1000 g/ha) it was 100%.
Consider `Cc1cc(C)c(C2C(=O)CC(CCNC(=O)C(C)(C)C)C2=O)c(C)c1` (stereo not drawn) [Compound A2], for which the pest or weed control at 250 g/ha in assay [1] was 90%; in assay [2] it was 80%; in assay [3] it was 80%; in assay [4], 100%. In addition, the inhibition at 250 g/ha came out at 90% in assay [5], 70% in assay [6], 70% in assay [7] and 100% in assay [8].
On to `Cc1cc(C)c(C2C(=O)CC(CCNC(=O)c3ccccn3)C2=O)c(C)c1` (stereo not drawn) [Compound A3], for which the pest or weed control at 250 g/ha in assay [1] is 90%; in assay [2], 100%; in assay [3] it was 100%; in assay [4], 100%. Moreover, the inhibition at 250 g/ha in assay [5] is 90%; in assay [6], 90%; in assay [7], 100%; in assay [8], 100%.
Regarding `Cc1cc(C)c(C2C(=O)CC(CCNC(=O)C3CCCCC3)C2=O)c(C)c1` (stereo not drawn) [Compound A13], the pest or weed control at 250 g/ha in assay [1] amounted to 70%; in assay [2], 70%; in assay [3], 100%; in assay [4] it was 90%. Also, the inhibition at 250 g/ha in assay [5] is 80%; in assay [6], 80%; in assay [7], 100%; in assay [8], 90%.
Regarding `Cc1cc(C)c(C2C(=O)CC(CCNC(=O)c3ccc(F)cc3)C2=O)c(C)c1` (stereo not drawn) [Compound A19], the pest or weed control at 250 g/ha in assay [1] came to 80%; in assay [2], 70%; in assay [3] it was 100%; in assay [4], 100%. Also, the inhibition at 250 g/ha in assay [5] was 90%; in assay [6], 50%; in assay [7], 100%; in assay [8], 100%.
In the case of `Cc1cc(-c2ccc(F)cc2)cc(C)c1C1C(=O)CC(CCNC(=O)c2ccccn2)C1=O` (stereo not drawn) [Compound A32], the pest or weed control at 250 g/ha was 90% in assay [1], 100% in assay [2], 100% in assay [3] and 100% in assay [4]. The inhibition at 250 g/ha was determined as 100% in assay [5], 80% in assay [6], 100% in assay [7] and 100% in assay [8].
Take `CC#Cc1cc(C)c(C2C(=O)CC(CCNC(=O)c3ccccn3)C2=O)c(C)c1` (stereo not drawn) [Compound A33]: the pest or weed control at 250 g/ha turned out to be 90% in assay [1], 100% in assay [2], 100% in assay [3] and 100% in assay [4]. Moreover, the inhibition at 250 g/ha in assay [5] is 90%; in assay [6], 80%; in assay [7] it was 100%; in assay [8], 100%.
As for `Cc1cc(C)c(C2C(=O)CC(CCNC(=O)c3c(Cl)c(C)nn3C)C2=O)c(C)c1` (stereo not drawn) [Compound A145], the pest or weed control at 250 g/ha worked out at 100% in assay [1], 90% in assay [2], 90% in assay [3] and 90% in assay [4]. In addition, the inhibition at 250 g/ha in assay [5] was 90%; in assay [6], 40%; in assay [7], 90%; in assay [8] it was 100%.
Regarding `Cc1cc(C)c(C2C(=O)CC(CCNC(=O)c3c(Cl)nn(C)c3Cl)C2=O)c(C)c1` (stereo not drawn) [Compound A159], the pest or weed control at 250 g/ha turned out to be 100% in assay [1], 90% in assay [2], 90% in assay [3] and 100% in assay [4]. Also, the inhibition at 250 g/ha in assay [5] was 90%; in assay [6], 80%; in assay [7] it was 100%; in assay [8], 100%.
